Measurements reported in patent US9096643B2, “Cell-protective peptides and uses thereof” (priority 2010, dated 2015).
“And” between values parts separate entries of the source, which are not always exact repeats. Equal values may be shown once. No end group written: not given here.

Key:
human iPS cells = test: Teratoma formation after grafting into hind-limb muscles of NOD-SCID mice; type: in vivo; conditions: 10 passages in 50 μM, grafted into NOD-SCID mice
[1] = system: Human ESC-derived cardiac cells (Hes2); test: Caspase 3/7 assay of human ESC-derived cardiac cells; type: cell-based; conditions: 50 μM, FIG. 20
Description: Human ESC-derived cardiac cell culture, were derived from Day 20 EBs, consisting of greater than 50% cardiomyocytes obtained by directed differentiation of human ES (Hes2) cells as described by Yang et al. (Nature 453, 524-528 (2008)). EBs were dissociated using Collagenase I (Invitrogen) for 2 hrs and 0.05% Trypsin-EDTA (Invitrogen) for 5 min and plated at 40000 cells/cm^2 onto 0.2% gelatin-coated plates in Stempro 34 medium supplemented with VEGF (10 ng/ml) and DKK1 (150 ng/ml). Cells were cultured in the presence of 50 μM QHREDGS, 50 μM DGQESHR (Biomatik) or PBS until they formed a beating monolayer, around 10 days. Peptides were replenished during media changes every 3 days. 100 μM H2O2 (Sigma, dissolved in PBS) was added to culture media for 10 min, washed, and analyzed immediately for CFDA-Live/PI-Dead. Live cells were counted using the cell counter plug in for ImageJ. 0.5 μM or 2.5 μM taxol (Sigma, dissolved in DMSO) was added to culture media for 24 hrs, and the extent of apoptosis was analyzed immediately using the Apo-ONE Homogeneous Caspase Assay (Promega), or TUNEL assay (Roche) as described above. A PBS control was used for H2O2 and DMSO control was used for taxol.

[2] = system: Rat neonatal cardiomyocytes; test: Doxorubicin induced apoptosis and caspase activation (Western blot); type: cell-based; conditions: 1 d, doses as low as 5 μM, FIG. 5B,C
Description: Rat neonatal cardiomyocytes were given doxorubicin (Dox) to induce apoptosis and PBS or peptide QHREDGS (1 d), Western blotting was conducted and levels assessed via densitometric analysis (Scion Image software).

human iPS cells BJ1D = test: iPS cell apoptosis, Apo-ONE Caspase 3/7; type: cell-based; conditions: 50 μM, five passages, vs PBS and scrambled peptide, FIG. 12A
Description: (§1) Human iPS cells were treated for 5 passages and levels of apoptosis were measured 3 days after passaging using the Apo-ONE Homogeneous Caspase assay (Promega) according to manufacturers instructions. The levels of Caspase 3/7 activation were proportional to levels of fluorescence. All statistical analyses were performed using the two-tailed student t-test assuming unequal variance. p<0.05 denote statistical significance.
(§2) IPS cells, BJ1D or 0901B, were treated with 5 μM or 50 μM of QHREDGS peptide, or 50 μM DGQESHR scrambled peptide in PBS with a PBS treated control for five passages and assayed for apoptosis using the APO One Caspase 3/7 system. The levels of Caspase 3/7 activation are proportional to fluorescence. […] Solid bars represent a statistical significance, p<0.05.

human iPS cells 0901B = test: iPS cell apoptosis, Apo-ONE Caspase 3/7; type: cell-based; conditions: 50 μM, five passages, vs PBS and scrambled peptide, FIG. 12B
Description: as §1, §2

[3] = system: neonatal cardiomyocytes encapsulated in chitosan hydrogels; test: Functional testing by electrical field stimulation (ET, MCR) of encapsulated cardiomyocytes; type: cell-based, rat
From the text: The electrical function of in vitro samples of neonatal cardiomyocytes encapsulated in chitosan hydrogels for 6 d was established by measuring excitation threshold (ET), the minimum voltage required to pace the encapsulated cells simultaneously, and maximum capture rate (MCR) as previously described, (Radisic, Park et al. 2004), the contents of which are incorporated by reference. The MCR is the maximum stimulation rate at which the encapsulated cardiomyocytes can be induced to beat simultaneously, the encapsulated samples were placed between a pair of carbon electrodes immersed in warm Tyrode solution (Sigma, pH 7.4). The ET was measured by stimulating the samples with square pulses of 2 ms width at a frequency of 1 Hz and increasing the output voltage of the stimulator until ˜90% of the cells in the field-of-view were beating synchronously with the stimulator output. The MCR was measured by setting the output at 15 V, and increasing the frequency until most of the cells in the sample were no longer synchronously beating with the driving signal. All measurements were taken using bright field microscopy. The samples were placed in an environmental chamber at 37° C. for the measurements (N=3/group).

Lewis rats = test: Subcutaneous implantation of cardiomyocyte/hydrogel constructs and histological assessment
Description: Cardiac constructs were made by encapsulation of neonatal Lewis rat cardiomyocytes in Az-chitosan-QHREDGS or Az-chitosan-RGDS. A total of 2×10^6 cardiomyocytes were resuspended in 15 μL of ice cold cardiomyocytes medium with 30% FBS for at least 10 min. These cells were then encapsulated in 100 μL of the hydrogel in transwell plates and constructs (2 mm thick and 6 mm in diameter) were produced. A total of 8 samples were made for each type of hydrogel, and 4 from each group were implanted, while the other 4 were retained as in vitro controls. Samples were cultured at 37° C. for 5 d before they were implanted in vivo.
Cardiac constructs described above were inserted subcutaneously into the abdomen of Lewis rats. Four samples were implanted for each type of hydrogel. […] Quantification of total SMA and Factor VIII was performed using ImageScope v10 (Aperio Technologies) and mean intensities were averaged for six fields for each sample and normalized to total area. […] Apoptosis was assessed using a TUNEL assay (Roche Applied Science) following the manufacturer's standard protocol.

[4] = system: neonatal rat CMs (heart cells); test: Immunostaining for cardiac troponin I on coated surfaces; type: cell-based, rat (Sprague-Dawley); conditions: day 8 of cultivation, vs Az-chitosan alone, FIG. 3
Description: The day before cells were ready to be seeded, the surfaces in the 12-well plates were sterilized by germicidal UV illumination overnight. The PBS surrounding the surfaces was then aspirated off and 100,000 live cells were pipetted onto each surface in 100 μL of culture media. These surfaces were left in the incubator for 20 to 30 min to allow the cells to begin to adhere, and then supplemented with 1 mL of warm CM media. The cells were cultivated for 8 days, with 100% culture media change every 2-3 days. The initial seeding density of heart cells on peptide-chitosan coated surfaces was 88 cells/mm^2. […] Each type of surface was created in triplicate.
The immunostaining against cardiac troponin I was performed on cells fixed with 4 w/v % paraformaldehyde (PFA, Sigma). The samples were submersed in a blocking solution composed of 10% normal horse serum (NHS, Vector Laboratories) in PBS for 40 min at room temperature. This solution was removed and the sample was submersed in a solution containing primary antibody for 1 hour at 37° C. […] Each sample was made in triplicate and five pictures were taken of each surface to have an adequate representation for quantification. The numbers of nuclei were determined by counting the number of DAPI stained nuclei using the cell counting plugin on ImageJ. The number of CMs was determined by counting the number of successfully stained Troponin I cells.

[5] = 7 days after subcutaneous implantation

| Substance | teratoma formation (human iPS cells) | reduction of basal apoptosis levels in cardiac cells (Caspase 3/7) [1] [fold] | activation of caspases-3 and -6 [2] | Caspase 3/7 activity (human iPS cells BJ1D) | Caspase 3/7 activity (human iPS cells 0901B) | ET (excitation threshold) ([3]; after six days of cultivation) | MCR (maximum capture rate) ([3]; after six days of cultivation) [pps] | cardiomyocyte contraction under electrical field stimulation ([3]; end of cultivation period) | cardiomyocytes in implant (sarcomeric α-actinin, troponin I staining) (Lewis rats; [5]) | percentage of apoptotic cells (TUNEL) (Lewis rats; [5]) [%] | apoptotic cardiomyocytes (troponin I and TUNEL double staining) (Lewis rats; 7 days after subcutaneous implantation, vs RGDS modified hydrogel) | biomaterial degradation and cell infiltration (H&E) (Lewis rats; day 7 after subcutaneous implantation) | percentage of SMA+ myofibroblasts (Lewis rats; vs Az-chitosan-RGDS hydrogel) | percentage of troponin I positive cells [4] |
| --- | --- | --- | --- | --- | --- | --- | --- | --- | --- | --- | --- | --- | --- | --- |
| QHREDGS (angiopoietin 1 peptide) | continued to form teratomas | 2 | blocked | significant reduction of Caspase 3/7 activity | significant reduction of Caspase 3/7 activity |  |  |  |  |  |  |  |  |  |
| Az-chitosan-QHREDGS: QHREDGS peptide covalently conjugated to Az-chitosan by EDC chemistry (also: covalently conjugated to Az-chitosan by EDC chemistry, site not given here) |  |  |  |  |  | 7.0 ± 0.4; V and 9.2 ± 0.6 V | 4.3 ± 0.1 | beat synchronously | larger areas of cardiomyocytes | ~1.5 | fewer apoptotic cardiomyocytes | less cell infiltration | significantly higher percentage of SMA+ myofibroblasts | increase in the percentage of troponin I positive cells |
